# Values quoted from earlier work, collected in patent US20140271465A1, “MATRIX METALLOPROTEASE (MMP) TARGETED AGENTS FOR IMAGING AND THERAPY” (Mallinckrodt LLC, priority 2013, published 2014).
# Assays:
# rhMMP14 = molecular target: T1, rhMMP14 (Homo sapiens, UniProt P50281); settings: control compound, vendor description
# T1 construct: purchased R&D Systems 918-MP
# rhMMP2 = molecular target: T2, rhMMP2 (Homo sapiens, UniProt P08253); settings: control compound, vendor description
# T2 construct: purchased R&D Systems 902-MP
# T2 sequence (P08253 110-660): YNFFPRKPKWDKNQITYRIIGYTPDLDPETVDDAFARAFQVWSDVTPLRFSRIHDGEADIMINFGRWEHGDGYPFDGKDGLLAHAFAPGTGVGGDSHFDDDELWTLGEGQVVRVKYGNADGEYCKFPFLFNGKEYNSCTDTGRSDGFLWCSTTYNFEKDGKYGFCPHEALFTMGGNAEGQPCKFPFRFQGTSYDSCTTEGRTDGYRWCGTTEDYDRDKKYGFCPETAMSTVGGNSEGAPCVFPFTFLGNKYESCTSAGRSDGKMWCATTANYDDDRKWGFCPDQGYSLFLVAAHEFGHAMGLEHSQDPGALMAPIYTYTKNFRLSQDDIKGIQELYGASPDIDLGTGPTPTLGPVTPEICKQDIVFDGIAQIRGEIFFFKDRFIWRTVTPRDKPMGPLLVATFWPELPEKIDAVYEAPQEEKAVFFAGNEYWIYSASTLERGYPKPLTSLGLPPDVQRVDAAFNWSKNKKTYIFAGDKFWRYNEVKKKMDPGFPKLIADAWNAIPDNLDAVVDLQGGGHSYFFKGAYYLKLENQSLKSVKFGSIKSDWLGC
SMILES,Inhibition of MMP-14 (control description) (rhMMP14),Inhibition of MMP-2 (control description) (rhMMP2)
CC(C)ON(CC(=O)NO)S(=O)(=O)c1ccc(-c2ccccc2)cc1 [ARP100],poor inhibitor for MMP-14,selective MMP-2 inhibitor
CNC(=O)[C@H](Cc1ccccc1)NC(=O)[C@H](CC(C)C)[C@H](CSc1cccs1)C(=O)NO [Batimastat],low nM levels,low nM levels
